Values after ≈ are worked out from the molar mass of the structure shown. Values joined by “and” are separate entries in the source; they are usually repeats but may differ in a detail not shown here. Equal values may be shown once.
Experiments:
[1] = system: S. aureus mutant M1 (parental strain ATCC 25923); assay: MIC of spontaneously resistant mutant; type: cell-based, Staphylococcus aureus; details: for MIC90: Staphylococcus aureus, ATCC25923
Experimental: (§1) The minimal inhibitory concentration (MIC) has been determined according to the CSLI guidelines (CLSI [2012]). Briefly, in a sterile polystyrene U-bottom 96-well plate, a 2-fold serial dilution ranging from 100 to 0.78 μM of testing compounds has been prepared in 50 μL MHB. A freshly inoculated S. aureus culture was grown until OD600 nm of approx. 0.6 and diluted to 10^6 CFU/mL in MHB. Finally, 50 μL of the latter cell suspension was added to each well and then incubated statically for 18–24 h at 37 °C. MIC was determined using BacTiterGlo ATP assay (Promega, Madison, WI, USA) and Tecan Infinite F200 Pro (Tecan, Männedorf, Switzerland). Moxifloxacin and DMSO were used as positive and negative control, respectively. Sublethal concentrations of colistin (0.1 μM) were used in some experiments to increase the permeability of the gram-negative cell envelope for compound testing. For E. cloacae, a broth microdilution assay was performed using a serial 2-fold dilution in 96-well flat-bottomed plates (Falcon, BD Bioscience, Heidelberg) of both PPs in broth LB medium (Roth, Karlsruhe) at a concentration range of 50–0.024 μM.
(§2) Spontaneous resistant mutants have been generated with 2-bromo-PP and 3-bromo-PP to further investigate the mechanism of antibacterial action and resistance. Since isolation of spontaneous resistant mutants in one step was not successful on solid media containing 2-bromo-PP or 3-bromo-PP (i.e. resistance frequency < 10^−7 at 5-fold MIC), enrichment was done by passaging bacteria daily in liquid media containing increasing sublethal concentrations of PPs. […] Moreover, we observed cross-resistance between PPs since 2-bromo-PP-resistant mutants were also resistant against 3-bromo-PP and vice versa (Fig. 4a; Table 2).

[2] = system: S. aureus mutant M4 (parental strain Mu50); assay: MIC of spontaneously resistant mutant; type: cell-based, Staphylococcus aureus; details: for MIC90: Staphylococcus aureus
Experimental: as §1, §2

[3] = system: persisters of MRSA Mu50; assay: Antipersister activity assay (Resazurin); type: cell-based; details: Staphylococcus aureus, 24 h, read-out: MIC against persisters
Experimental: Cultures were, if not stated differently, incubated at 37 °C with aeration and shaking (150 rpm) in Mueller-Hinton broth (MHB). Bacteria were freshly incubated at the next morning from an overnight pre-culture for actively growing bacteria to an OD600 nm of approx. 0.6. To ensure persistent growth form, the bacteria were grown overnight until a density at OD600 nm > 5.0 was obtained. For biofilm growth, some colonies from a Mueller-Hinton agar (MHA) plate were picked and resuspended in MHB. Cell density has been adjusted to OD600 nm = 0.8, and cells were sown into a flat-bottom 96-well plate to be incubated statically at 37 °C with aeration. Studies were mainly performed with S. aureus Mu50.
Sterile U-bottom 96-well polystyrene plates were used for the assay. The wells were prepared with a final volume of 50 μL phosphate-buffered saline (PBS, NaCl = 137 mM, KCl = 2.7 mM, NaHPO4 = 10 mM, KH2PO4 = 1.8 mM, pH = 7.4) containing a 2-fold serial dilution of compounds ranging from 100 to 0.78 μM. S. aureus was cultivated as described above and washed three times with PBS before adjusting the cell density to approx. 2 × 10^7 cells/mL (OD600 nm = 0.08). […]
Viability of bacterial cells was estimated employing the Resazurin dye reduction assay. […] Finally, the fluorescence was quantified in a plate reader with 535-nm excision and 590-nm emission wavelengths. […]

[4] = system: actively replicating MRSA strain Mu50; assay: Killing kinetics, actively replicating cells (CFU plating); type: cell-based, Staphylococcus aureus; details: MHB, start 10^6 CFU/mL; for time of first antibacterial effects: 4× MIC; for time until viability reached the detection limit: PPs at 4× MIC, moxifloxacin 20 μM, detection limit 10^2 CFU/mL
Experimental: S. aureus cells were freshly incubated in MHB until an OD600 nm of approx. 0.6 was reached. Next, the cells were diluted to 10^6 CFU/mL in 5 mL MHB. […] At certain time points (0, 0.5, 1, 3, 6, 8, 24 h), 100 μL was removed from the culture, diluted and plated onto MHA plates. After 24-h incubation, colonies were counted and viability (expressed as colony-forming units per mL (CFU/mL)) was calculated considering the dilution factor.

[5] = system: preformed biofilms of P. aeruginosa POA1; assay: Antibiofilm activity assay, viability by Resazurin reduction; type: cell-based, Pseudomonas aeruginosa
[6] = system: A. baumannii ATCC 747; assay: Killing kinetics, replicating cells; type: cell-based; details: 2-bromo-PP 3.125 µM, 3-bromo-PP 6.25 µM; multidrug-resistant Acinetobacter baumannii as worded
Experimental: 39 Figure S2 – Bactericidal effects of 2-bromo-PP and 3-bromo-PP against replicating
40 cells of A. baumannii ATCC 747. Colistin was used as positive control (3.125 µM). 2-
41 bromo-PP and 3-bromo-PP were used at concentrations of 3.125 µM and 6.25 µM,
42 respectively. The limit of detection was 500 CFU/mL.
(1 picture or pasted object on this page, not shown here)

[7] = system: THP-1 (ATCC TIB-202); assay: Cytotoxicity assay (Resazurin); type: cell-based; details: Homo sapiens, THP-1, 48 h, 2 days
Experimental: (§3) Human cell lines were grown in their respective growth medium. Cells have been counted using a haemocytometer, and cell density was adjusted to 10^6 cells/mL. A 2-fold serial dilution was prepared in 96-well U-bottom plates, and cells were sown into the wells to a final density of […]. After 2 days at 37 °C and 5% CO2, 10 μL of a 100 μg/mL Resazurin dye solution was added to each well and was incubated for several hours. The reaction was inactivated with 100 μL of a 10% formalin solution per well. Finally, the fluorescence was quantified in a plate reader with 535-nm excision and 590-nm emission wavelengths.

[8] = system: HuH7 (CLS 300156); assay: Cytotoxicity assay (Resazurin); type: cell-based; details: Homo sapiens, Huh-7, 48 h, 2 days
Experimental: as §3

[9] = system: HEK293 (CLS 300192); assay: Cytotoxicity assay (Resazurin); type: cell-based; details: Homo sapiens, HEK293, 48 h, 2 days
Experimental: as §3

[10] = system: MRC-5 (ATCC CCL-171); assay: Cytotoxicity assay (Resazurin); type: cell-based; details: Homo sapiens, MRC5, 48 h, 2 days
Experimental: as §3

[11] = system: CLS-54 (CLS 300227); assay: Cytotoxicity assay (Resazurin); type: cell-based; details: Homo sapiens, 48 h, 2 days
Experimental: as §3

[12] = system: HepG2 (CLS 300198); assay: Cytotoxicity assay (Resazurin); type: cell-based; details: Homo sapiens, HepG2, 48 h, 2 days
Experimental: as §3

Row | Structure (SMILES) | MIC90 [1] | MIC90 [2] | MIC [3] [µM] | time of first antibacterial effects [4] [h] | time until viability reached the detection limit [4] [h] | concentration of complete inhibition of cell viability in biofilms [5] [µM] | bactericidal effect against replicating cells [6] | IC50 [7] [µM] | IC50 [8] [µM] | IC50 [9] [µM] | IC50 [10] [µM] | IC50 [11] [µM] | IC50 [12] [µM] | MIC shift against 3-bromo-PP ([1]; mutant M1 raised against 2-bromo-PP, vs parental strain) [×] | MIC shift against 3-bromo-PP ([2]; mutant M4 raised against 3-bromo-PP, vs parental strain Mu50) [×]
1 | Oc1c(Br)cc(Br)cc1Oc1ccc(Br)cc1Br [2-bromo-PP, 4,6-dibromo-2-(2′,4′-dibromophenoxy)phenol] | 1.56 µM and 0.78 µg/mL | 1.56 µM and 0.78 µg/mL | 12.5 (≈ 6.27 µg/mL) | 3 | 8 | 25 | comparable bactericidal effect | 6.25 | > 100 | 12.5 | > 100 | > 100 | 50 | – | –
2 | Oc1c(Br)cc(Br)c(Br)c1Oc1ccc(Br)cc1Br [3-bromo-PP, 3,4,6-tribromo-2-(2′,4′-dibromophenoxy)phenol] | 3.12 µM and 1.81 µg/mL | 3.12 µM and 1.81 µg/mL | 6.25 (≈ 3.63 µg/mL) | 6 | 8 | 50 | comparable bactericidal effect | 50 | > 100 | 3.12 | 100 | > 100 | 25 | 4 | 32

Reference: PMC8217011, “Natural brominated phenoxyphenols kill persistent and biofilm-incorporated cells of MRSA and other pathogenic bacteria” (Applied Microbiology and Biotechnology, 2020)
